One experiment relates to SN12K1 renal. The experiment is described as follows: NCI tumour cell line growth inhibition, 48 h.
A further experiment concerns P388/ADR leukemia. Description: NCI tumour cell line growth inhibition, 48 h.

Values joined by “and” are separate entries in the source; they are usually repeats but may differ in a detail not shown here. Equal entries are not always repeated.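 Cells were grown in 96-well plates and exposed to each compound for 48 hours at five concentrations; endpoints were interpolated linearly between bracketing concentrations, or set to the highest concentration if not reached. GI50 marks 50% less growth. TGI: total growth inhibition.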

Turning to `COc1ccc2[nH]c3c(C)c4cc[n+](C)cc4c(C)c3c2c1`, the GI50 in the experiment with SN12K1 renal is 0.146 µM; with P388/ADR leukemia, 20.8 µM. For the same compound, the TGI was 2.96 µM and 2.75 µM and 1.85 µM with SN12K1 renal; > 56.2 µM and > 75 µM and 125 µM in the experiment on P388/ADR leukemia.
Turning to `S=c1nc[nH]c2nc[nH]c12`, the results for the TGI in the experiment with SN12K1 renal and with P388/ADR leukemia were 527 µM and 548 µM, respectively.
On the same counts, the results for `CC(C)[C@](O)(C(=O)OCC1=CC[N+]2([O-])CC[C@@H](O)[C@@H]12)[C@H](C)O` (stereo partly drawn) are over 10000 µM and over 10000 µM.

Source of the values: PubChem BioAssay (NCI).
